The results in this text go back to patent publication US8440711B2, “2-aryl-2-fluoropropanoic acids and derivatives and pharmaceutical compositions containing them” (Dompe Pha.r.ma S.p.A., priority 2006, dated 2013).

Data set [1] deals with GRO-α induced chemotaxis of polymorphonucleate leukocytes (PMNs). The data set can be described thus: GRO-α induced chemotaxis of human PMNs. The conditions noted are these: Leukocyte; for inhibition at 0.01 µM: 10^−8 M. The data set is classed as cell-based. The protocol:
(§1) The compounds of the invention of formula (I) were evaluated in vitro for their ability to inhibit chemotaxis of polymorphonucleate leukocytes (hereinafter referred to as PMNs) and monocytes induced by the fractions of CXCL8 and GRO-α and C5a and compared to the corresponding non fluorinated parent compounds. For this purpose, in order to isolate the PMNs from heparinized human blood, taken from healthy adult volunteers, mononucleates were removed by means of sedimentation on dextran (according to the procedure disclosed by W. J. Ming et al., J. Immunol., 138, 1469, 1987) and red blood cells by a hypotonic solution. The cell vitality was calculated by exclusion with Trypan blue, whilst the ratio of the circulating polymorphonucleates was estimated on the cytocentrifugate after staining with Diff Quick.
GRO-α induced chemotaxis inhibition was evaluated in an analogous assay.
(§2) In the chemotaxis experiments, the PMNs were incubated with the compounds of the invention of formula (I) for 15′ at 37° C. in an atmosphere containing 5% CO2.
(§3) During the chemotaxis assay (W. Falket et al., J. Immunol. Methods, 33, 239, 1980) PVP-free filters with a porosity of 5 μm and microchambers suitable for replication were used.
(§4) The compounds of the invention in formula (I) were evaluated at a concentration ranging between 10^−6 and 10^−10 M; for this purpose they were added, at the same concentration, both to the lower pores and the upper pores of the microchamber. Evaluation of the ability of the compounds of the invention of formula (I) to inhibit the chemotaxis of human monocytes was carried out according to the method disclosed (Van Damme J. et al., Eur. J. Immunol., 19, 2367, 1989).

Data set [2] concerns CXCL8 induced chemotaxis of polymorphonucleate leukocytes (PMNs). Nature of the data set: CXCL8 induced chemotaxis of human PMNs. The data set is classed as cell-based. The conditions noted are these: Leukocyte; for inhibition at 0.001 µM: 10^−9 M. The method, then: as §1
In the CXCL8 induced chemotaxis assay human recombinant CXCL8 (Pepro Tech) was used as stimulating agents in the chemotaxis experiments: the lyophilized protein was dissolved in a volume of HBSS containing 0.2% bovin serum albumin (BSA) so thus to obtain a stock solution having a concentration of 10^−5 M to be diluted in HBSS to a concentration of 10^−9 M, for the chemotaxis assays.
as §2, §3, §4

Data set [3] deals with C5a induced chemotaxis of polymorphonucleate leukocytes (PMNs). Nature of the data set: C5a induced chemotaxis of human PMNs. Format: cell-based. The conditions noted are these: Leukocyte, 10^−8 M, Table 2. The protocol: as §1
In the C5a induced chemotaxis assay the fractions hr-C5a and hrC5a-desArg (Sigma) were used as stimulating agents in chemotaxis experiments, obtaining practically identical results. Lyophilized C5a was dissolved in a volume of HBSS containing 0.2% BSA so as to obtain a stock solution having a concentration of 10^−5 M, to be diluted in HBSS to a concentration of 10^−9 M, for the chemotaxis assays.
as §2
The chemotactic activity of the C5a was evaluated on human circulating polymorphonucleates (PMNs) resuspended in HBSS at a concentration of 1.5×10^6 PMNs per nil.
as §3, §4

The nature of data set [4]: Pharmacokinetic profile after intravenous and oral administration. The data set is classed as in vivo. Particulars: male, rat, plasma; for bioavailability: po; for half-life: read-out: t½ (converted). The protocol: The pharmacokinetic profile of the compounds of formula (I) was evaluated in male mice or rats after intravenous and oral administration. The pharmacokinetic analysis was performed using plasmatic concentrations of the compounds at different times. The data were evaluated by Kinetica 2000™, Version 3.0 Software [InnaPhase Corporation, World headquarters, 1700 Race Street, Philadelphia, Pa. 19103 USA]. The pharmacokinetic parameters were calculated according the following formulas: Kel=elimination rate constant; t1/2=In2/Kel, AUC=AUC0n+AUCextra, where AUC0n=AUC from t=0 to t last (Trapezoidal Method) and AUCextra=extrapolated AUC=Clast/Kel; Clearance=D/AUC; Vd=Cl/Kel; Oral bioavailability F=(AUCp.o./AUCi.v.)*(Di.v./Dp.o.)*100.

Data set [5] is described as follows: Protein binding in rat plasma (ultrafiltration). Format: in vitro ADME. The conditions noted are these: 37° C. The method, then: (§5) Protein Binding was determined as follows: Duplicate rat plasma samples of each compound at 50 μg/mL concentration were incubated at 37° C. for 20 minutes under gentle shaking. Then samples were ultrafiltrated through Centrifree® micropartition devices by centrifugation at 1500 g for 15 minutes. The ultrafiltrate was subjected to HPLC-MS/MS quantitative analysis (Column Luna C18, 150×2 mm ID 5 μm (Phenomenex), mobile phase: eluent A) 0.02M HCOO—NH4+ (pH 4.3 with HCOOH); eluent B) CH3OH).

Data set [6] can be described thus: Protein binding, experiments performed in mouse. Format: in vitro ADME. The conditions noted are these: plasma; values marked *: experiments performed in mouse. The protocol:
as §5

Where [7] appears, read: Table 1, read-out: CXCL8 (% inhibition at 10^−9 M).
The mark [8] stands for this setting: values marked *: 10^−7 M, Table 1, read-out: GRO-α (% of inhibition at 10^−7 M).

Counter-ions that a name gives are not always drawn. Like-named read-outs stand apart in the source and are kept apart here.

Take `CC(F)(C(N)=O)c1ccc(OS(=O)(=O)C(F)(F)F)cc1` (centres unmarked) (as salt: methanesulfonate) [Compound 8, 4-(2-amino-1-fluoro-1-methyl-2-oxoethyl)phenyl trifluoromethanesulfonate]: the melting point – broadly, the temperature, or range, at which the solid turns liquid – was 85 to 87 °C.

In the case of `CC(F)(C(=O)O)c1cccc(Nc2nc(C(F)(F)F)cs2)c1` (centres unmarked) [Compound 7], the inhibition (as a rule, the drop in the measured response relative to a control, in per cent) at 0.01 µM in data set [1] (Table 1) was found to be 60 ± 10%. For the same molecule, in data set [2] (setting [7]), the inhibition at 0.001 µM was 21 ± 6%.

In the case of `CONC(=O)C(C)(F)c1ccc(OS(=O)(=O)C(F)(F)F)cc1` (centres unmarked) [Compound 11, 4-[1-fluoro-2-(methoxyamino)-1-methyl-2-oxoethyl]phenyl trifluoromethanesulfonate], 0.01 µM produced 7 ± 8% inhibition in data set [1] (Table 1). Besides, the inhibition at 0.1 µM in data set [2] (values marked *: 10^−7 M, Table 1, read-out: CXCL8 (% of inhibition at 10^−7 M)) stood at 40 ± 10%.

In the case of `C[C@H](NC(=O)[C@](C)(F)c1ccc(OS(=O)(=O)C(F)(F)F)cc1)C(=O)O` [Compound 15, (2S)-2-{[(2R)-2-fluoro-2-(4-{[(trifluoromethyl)sulfonyl]oxy}phenyl)propanoyl]amino}propanoic acid], the inhibition at 0.001 µM in data set [2] (setting [7]) came out at 55 ± 8%.

Regarding `CC(F)(C(N)=O)c1cccc(C(=O)c2ccccc2)c1` (centres unmarked) [Compound 13, 2-(3-benzoylphenyl)-2-fluoropropanamide], the inhibition at 0.1 µM in data set [1] (marked *, no footnote in Table 2 (Table 1: * = 10^−7 M), read-out: GRO-α (% inhibition), value marked *) is 50 ± 12%; in data set [2] (marked *, no footnote in Table 2 (Table 1: * = 10^−7 M), read-out: CSCL8 (% inhibition), value marked *) it was 52 ± 8%. The inhibition at 0.01 µM in data set [3] worked out at 47 ± 9%.

The molecule `C[C@@](F)(C(N)=O)c1ccc(OS(=O)(=O)C(F)(F)F)cc1` [Compound 10, 4-[(1S)-2-amino-1-fluoro-1-methyl-2-oxoethyl)phenyl trifluoromethanesulfonate] yielded an inhibition at 0.01 µM in data set [1] (Table 1) of 10 ± 12%. Also, in data set [2] (setting [7]), the inhibition at 0.001 µM turned out to be 50 ± 6%.

On to `CC(F)(C(N)=O)c1cccc(Nc2nc(C(F)(F)F)cs2)c1` (centres unmarked) [Compound 14, 2-fluoro-2-(3-{[4-(trifluoromethyl)-1,3-thiazol-2-yl]amino}phenyl)propanamide], for which the inhibition at 0.01 µM in data set [1] (Table 2) amounted to 55 ± 7%; in data set [3], 33 ± 5%. Further, in data set [2] (Table 2, read-out: CSCL8 (% inhibition at 10^−9 M)), the inhibition at 0.001 µM worked out at 36 ± 12%.

Regarding `C[C@](F)(C(N)=O)c1ccc(OS(=O)(=O)C(F)(F)F)cc1` [Compound 9, 4-[(1R)-2-amino-1-fluoro-1-methyl-2-oxoethyl)phenyl trifluoromethanesulfonate], in data set [1] (Table 1), the inhibition at 0.01 µM came out at 53 ± 9%.

On to `CC(O)(C(N)=O)c1ccc(OS(=O)(=O)C(F)(F)F)cc1` (centres unmarked), for which, in data set [4], the Vd worked out at 1.33 L/kg; the clearance was 0.65 mL/min/kg; the bioavailability (as a rule, dose-corrected exposure relative to a reference, in per cent) was 85%; the half-life is 25 h. Moreover, the unbound share (fraction unbound) (commonly free concentration divided by total concentration) at 20 min, 50 μg/mL in data set [5] is 0.2.

Consider `C[C@H](NC(=O)C(C)(F)c1cccc(Nc2nc(C(F)(F)F)cs2)c1)C(=O)O` (stereo partly drawn) [Compound 16, (2S)-2-{[2-fluoro-2-(3-{[4-(trifluoromethyl)-1,3-thiazol-2-yl]amino}phenyl)propanoyl]amino}propanoic acid], for which the inhibition at 0.001 µM in data set [2] (setting [7]) worked out at 50 ± 12%.

Consider `C[C@](F)(C(=O)NS(C)(=O)=O)c1ccc(OS(=O)(=O)C(F)(F)F)cc1` [Compound 17, 4-{(1R)-1-fluoro-1-methyl-2-[(methylsulfonyl)amino]-2-oxoethyl}phenyl trifluoromethanesulfonate], for which testing at 0.01 µM in data set [1] (Table 1) gave an inhibition of 57 ± 14%.

`CC(F)(C(=O)O)c1cccc(C(=O)c2ccccc2)c1` (centres unmarked) [Compound 6, 2-(3-benzoylphenyl)-2-fluoropropanoic acid] returned an inhibition at 0.01 µM in data set [1] (Table 1) of 42 ± 4%.

`C[C@](F)(C(=O)O)c1ccc(OS(=O)(=O)C(F)(F)F)cc1` [Compound 3, (2R)-2-fluoro-2-(4-{[(trifluoromethyl)sulfonyl]oxy}phenyl)propanoic acid] showed a melting point of 90 to 94 °C. The inhibition at 0.1 µM in data set [1] (setting [8]) came out at 49 ± 6%.

In turn, `C[C@@](F)(C(=O)NCCCN1CCCC1)c1ccc(OS(=O)(=O)C(F)(F)F)cc1` [Compound 18] had an inhibition at 0.01 µM in data set [3] of 53 ± 5%.

`C[C@@](F)(C(=O)O)c1ccc(OS(=O)(=O)C(F)(F)F)cc1` [Compound 2, (2S)-2-fluoro-2-(4-{[(trifluoromethyl)sulfonyl]oxy}phenyl)propanoic acid] showed a melting point of 91 to 94 °C. Besides, the inhibition at 0.1 µM in data set [1] (setting [8]) stood at 43 ± 15%.

In the case of `C[C@@H](C(N)=O)c1ccc(OS(=O)(=O)C(F)(F)F)cc1`, in data set [4], the Vd worked out at 0.55 L/kg, the clearance is 3.67 mL/min/kg, the bioavailability worked out at 72% and the half-life is 1.9 h. Further, the fraction unbound at 20 min, 50 μg/mL in data set [5] is 0.06.

For `CN(O)C(=O)[C@@](C)(F)c1ccc(OS(=O)(=O)C(F)(F)F)cc1` [Compound 5, 4-[(1S)-1-fluoro-2-[hydroxyl(methyl)amino]-1-methyl-2-oxoethyl}phenyl trifluoromethane sulfonate], the inhibition at 0.01 µM in data set [1] (Table 1) stood at 40 ± 8%.

With `C[C@@](F)(C(N)=O)c1ccc(OS(=O)(=O)C(F)(F)F)cc1` [drawing 25], the fraction unbound at 20 min, 50 μg/mL in data set [6] is 0.08. For the same molecule, in data set [4], the Vd was found to be 1.47 L/kg, the clearance is 2.28 mL/min/kg, the bioavailability amounted to 84.2% and the half-life is 9.1 h.

`C[C@](F)(C(=O)NC[C@H]1CCCN1)c1ccc(OS(=O)(=O)C(F)(F)F)cc1` [Compound 19, 4-((1R)-1-fluoro-1-methyl-2-oxo-2-{[(2R)-pyrrolidin-2-ylmethyl]amino}ethyl)phenyl trifluoromethanesulfonate] returned an inhibition at 0.01 µM in data set [3] of 45 ± 4%.

`CC(F)(C(N)=O)c1ccc(OS(=O)(=O)C(F)(F)F)cc1` (centres unmarked) [Compound 8, 4-(2-amino-1-fluoro-1-methyl-2-oxoethyl)phenyl trifluoromethanesulfonate]: the inhibition at 0.01 µM in data set [1] (Table 1) amounted to 57 ± 12%. In data set [2] (setting [7]), the inhibition at 0.001 µM worked out at 50 ± 9%.

On to `CC(F)(C(=O)O)c1ccc(OS(=O)(=O)C(F)(F)F)cc1` (centres unmarked) [Compound 1, 2-Fluoro-2-(4-{[(trifluoromethyl)sulfonyl]oxy}phenyl) propanoic acid], for which the inhibition at 0.1 µM in data set [1] (setting [8]) is 47 ± 10%.

Consider `CC(C)NC(=O)C(C)(F)c1ccc(OS(=O)(=O)C(F)(F)F)cc1` (centres unmarked) [Compound 12, 4-[1-fluoro-2-(isopropylamino)-1-methyl-2-oxoethyl]phenyl trifluoromethanesulfonate], for which the inhibition at 0.1 µM in data set [1] (setting [8]) turned out to be 45 ± 8%.

With `C[C@](F)(C(N)=O)c1ccc(OS(=O)(=O)C(F)(F)F)cc1` [drawing 24], in data set [6], the unbound share (fraction unbound) at 20 min, 50 μg/mL is 0.05. Further, in data set [4], the Vd turned out to be 0.631 L/kg, the clearance was 0.53 mL/min/kg, the bioavailability is 46.8% and the half-life was 13.8 h.

Consider `C[C@@](F)(C(=O)NO)c1ccc(OS(=O)(=O)C(F)(F)F)cc1` [Compound 4, 4-[(1S)-1-fluoro-2-(hydroxyamino)-1-methyl-2-oxoethyl}phenyl trifluoromethanesulfonate], for which the inhibition at 0.01 µM in data set [1] (Table 1) came to 55 ± 10%.
